Assay results as given in paper PMC5889475 (Biochimie Open, 2015).

Target: T1, His-GlNMNAT (GlNMNAT, GlNMNAT-A) (Giardia duodenalis, UniProt A8BW22)
T1 sequence (A8BW22 1-227): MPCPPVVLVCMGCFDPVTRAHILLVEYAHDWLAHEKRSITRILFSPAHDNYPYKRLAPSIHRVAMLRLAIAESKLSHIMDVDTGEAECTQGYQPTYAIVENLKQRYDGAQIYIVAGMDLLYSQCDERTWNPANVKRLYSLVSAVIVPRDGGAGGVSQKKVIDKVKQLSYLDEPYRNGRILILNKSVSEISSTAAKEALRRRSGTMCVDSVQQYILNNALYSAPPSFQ
Assay: C18-HPLC of NAAD formation
Assay type: biochemical
Settings: ATP 10 mM; NAMN 0.25-12 mM

## O=C([O-])c1ccc[n+]([C@@H]2O[C@H](COP(=O)(O)O)[C@@H](O)[C@H]2O)c1 [NAMN]
  C18-HPLC of NAAD formation: for NAMN saturation was not observed, implying that the enzyme has low affinity yet detectable
